Reference: patent publication US20110136751A1, “Use of Polyphenols in the Treatment of Cancer” (Green Molecular, priority 2009, published 2011)

Key:
Test in all cases: IC50 on cell viability, Cell Counting Kit-8
Format in all cases: cell-based
MDA-MB-231 = conditions: Homo sapiens; code 3, MDA-MB-231, Breast Adenocarcinoma; cell viability 120 h after administration
Protocol: (§1) A panel of 36 human cell lines were first tested in terms of population doubling time and growth curves to determine the conditions for further assays. The cells were also tested to determine the dose of radiation that produces 50% cell viability (D50). […] Cell viability was determined 120 h after the administration of the compounds using the Cell Counting Kit-8 (Dojindo Molecular Technologies, Inc, Rockville, Md.). In the experiments, 0.1% SDS and 1% DMSO were used as positive and negative controls, respectively. Final concentrations of the compounds used in the experiments are listed below in Table 5: […]

MNNG-HOS = conditions: Homo sapiens; code 29, MNNG-HOS, Bone Osteosarcoma; cell viability 120 h after administration
Protocol: as §1

C32 = conditions: Homo sapiens; code 24, C32, Skin Melanoma; cell viability 120 h after administration
Protocol: as §1

CHP-126 = conditions: Homo sapiens; code 14, CHP-126, Brain Neuroblastoma; cell viability 120 h after administration
Protocol: as §1

HT-1080 = conditions: Homo sapiens; code 9, HT-1080, Fibrosarcoma; cell viability 120 h after administration
Protocol: as §1

A375 = conditions: Homo sapiens, A-375; code 23, A375, Skin Melanoma; cell viability 120 h after administration
Protocol: as §1

SK-N-AS = conditions: Homo sapiens; code 17, SK-N-AS, Brain Neuroblastoma; cell viability 120 h after administration
Protocol: as §1

MCF-7 = conditions: Homo sapiens, MCF7; code 2, MCF-7, Breast Adenocarcinoma; cell viability 120 h after administration
Protocol: as §1

Panc 10 05 = conditions: Homo sapiens, Panc1005; code 33, Panc 10 05, Pancreas Adenocarcinoma; cell viability 120 h after administration
Protocol: as §1

A-172 = conditions: Homo sapiens; code 12, A-172, Brain Gliblastoma; cell viability 120 h after administration
Protocol: as §1

HPAF-II = conditions: Homo sapiens; code 32, HPAF-II, Pancreas Adenocarcinoma; cell viability 120 h after administration
Protocol: as §1

Panc-1 = conditions: Homo sapiens; code 34, Panc-1, Pancreas Carcinoma Epithiloid; cell viability 120 h after administration
Protocol: as §1

SK-MEL-2 = conditions: Homo sapiens; code 25, SK-MEL-2, Skin Melanoma; cell viability 120 h after administration
Protocol: as §1

HBL-52 = conditions: Homo sapiens; code 19, HBL-52, Brain Meningioma; cell viability 120 h after administration
Protocol: as §1

U-38 MG = conditions: Homo sapiens; code 13, U-38 MG, Brain Gliblastoma/astrocitoma; cell viability 120 h after administration
Protocol: as §1

SW-872 = conditions: Homo sapiens, SW872; code 18, SW-872, Connective tissue Fibrosarcoma; cell viability 120 h after administration
Protocol: as §1

SH-SY5Y = conditions: Homo sapiens; code 16, SH-SY5Y, Brain Neuroblastoma; cell viability 120 h after administration
Protocol: as §1

A-204 = conditions: Homo sapiens, A204; code 35, A-204, Muscle Rhabdomyosarcoma; cell viability 120 h after administration
Protocol: as §1

IMR-32 = conditions: Homo sapiens; code 15, IMR-32, Brain Neuroblastoma; cell viability 120 h after administration
Protocol: as §1

HT-29 = conditions: Homo sapiens; code 8, HT-29, Colorectal Adenocarcinoma; cell viability 120 h after administration
Protocol: as §1

A549 = conditions: Homo sapiens; code 22, A549, Lung Carcinoma; cell viability 120 h after administration
Protocol: as §1

LN229 = conditions: Homo sapiens, LN-229; code 11, LN229, Brain Gliblastoma; cell viability 120 h after administration
Protocol: as §1

LN-18 = conditions: Homo sapiens; code 10, LN-18, Brain Gliblastoma; cell viability 120 h after administration
Protocol: as §1

T-47D = conditions: Homo sapiens, T47D; code 4, T-47D, Breast Carcinoma; cell viability 120 h after administration
Protocol: as §1

BT-20 = conditions: Homo sapiens; code 1, BT-20, Breast Carcinoma; cell viability 120 h after administration
Protocol: as §1

MSTO-211H = conditions: Homo sapiens; code 21, MSTO-211H, Lung Biphasic Mesothelioma; cell viability 120 h after administration
Protocol: as §1

BxPC-3 = conditions: Homo sapiens; code 31, BxPC-3, Pancreas Adenocarcinoma; cell viability 120 h after administration
Protocol: as §1

SK-ES-1 = conditions: Homo sapiens, SK-ES1; code 30, SK-ES-1, Bone Osteosarcoma; cell viability 120 h after administration
Protocol: as §1

NCI-H4BO = conditions: Homo sapiens; code 20, NCI-H4BO, Lung Carcinoma; cell viability 120 h after administration
Protocol: as §1

Compound	IC50 (MDA-MB-231) [µM]	IC50 (MNNG-HOS) [µM]	IC50 (C32) [µM]	IC50 (CHP-126) [µM]	IC50 (HT-1080) [µM]	IC50 (A375) [µM]	IC50 (SK-N-AS) [µM]	IC50 (MCF-7) [µM]	IC50 (Panc 10 05) [µM]	IC50 (A-172) [µM]	IC50 (HPAF-II) [µM]	IC50 (Panc-1) [µM]	IC50 (SK-MEL-2) [µM]	IC50 (HBL-52) [µM]	IC50 (U-38 MG) [µM]	IC50 (SW-872) [µM]	IC50 (SH-SY5Y) [µM]	IC50 (A-204) [µM]	IC50 (IMR-32) [µM]	IC50 (HT-29) [µM]	also measured
O=c1c(O)c(-c2ccc(O)c(O)c2)oc2cc(O)cc(O)c12 [QUER, quercetin]	20.7	9.91	22.1	19.1	5.54	19.6	19.8	19.7	23	10	20.2	62.5	11.6	22.8	4.83	3.51	4.38	18.1	20.2	18.7	IC50 (A549): 13.4 µM; IC50 (LN229): 8.12 µM; IC50 (LN-18): 9.72 µM; IC50 (T-47D): 10.7 µM; IC50 (BT-20): 9.21 µM; IC50 (MSTO-211H): 19.8 µM; IC50 (BxPC-3): 15.9 µM; IC50 (SK-ES-1): 8.2 µM; IC50 (NCI-H4BO): 10.1 µM
COc1cc(/C=C/c2ccc(O)cc2)cc(OC)c1 [t-PTER, trans-3,5-dimethoxy-4′-hydroxystilbene]	62.8	12.3	30.2	1.42	17.8	75.3	29.1	39.4	46.3	29.7	55.6	50.1	17.3	33.2	29.7	25.8	31.7	23.4	42.8	28.4	IC50 (A549): 25.8 µM; IC50 (LN229): 14.3 µM; IC50 (LN-18): 18.1 µM; IC50 (T-47D): 35 µM; IC50 (BT-20): 96.9 µM; IC50 (MSTO-211H): 12.3 µM; IC50 (BxPC-3): 31.1 µM; IC50 (SK-ES-1): 42.7 µM; IC50 (NCI-H4BO): 16.6 µM
Oc1ccc(/C=C/c2cc(O)cc(O)c2)cc1 [RI, trans-3,5,4′-trihydroxystilbene, reference compound]	15.1	11.7	18.5	26.7	10.2	24.9	68.3	49.9	24.2	47.6	86.1	33	10.7	29.1	6.29	81.1	26.1	19	43	27.9	IC50 (A549): 16.3 µM; IC50 (LN229): 11.2 µM; IC50 (LN-18): 28.4 µM; IC50 (T-47D): 25.6 µM; IC50 (BT-20): 66 µM; IC50 (MSTO-211H): 6.37 µM; IC50 (BxPC-3): 13.6 µM; IC50 (SK-ES-1): 27.2 µM; IC50 (NCI-H4BO): 11.5 µM
